Assay results from PubChem BioAssay (NCI).
“And” between values parts separate entries of the source, which are not always exact repeats. Equal entries are not always repeated.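 96-well plates; 48 h exposure; 5 concentrations. Endpoints by linear interpolation between flanking doses. Not reached: highest tested concentration assigned. GI50 = concentration required for 50% inhibition of growth. At the TGI there is no net growth.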

Experiments:
Test in all cases: DTP human tumour cell line panel, 48 h
A549 NSCLC = test system: A549 NSCLC
OVCAR-3 ovarian = test system: OVCAR-3 ovarian
ACHN renal = test system: ACHN renal
SF-268 CNS = test system: SF-268 CNS
SW-620 colon = test system: SW-620 colon
MOLT-4 leukemia = test system: MOLT-4 leukemia
CAKI-1 renal = test system: CAKI-1 renal
T-47D breast = test system: T-47D breast
MCF7 breast = test system: MCF7 breast
NCI/ADR-RES ovarian = test system: NCI/ADR-RES ovarian

SMILES | TGI (A549 NSCLC) [µM] | TGI (OVCAR-3 ovarian) [µM] | TGI (ACHN renal) [µM] | TGI (SF-268 CNS) [µM] | TGI (SW-620 colon) [µM] | TGI (MOLT-4 leukemia) | TGI (CAKI-1 renal) [µM] | GI50 (A549 NSCLC) [µM] | GI50 (OVCAR-3 ovarian) [µM] | GI50 (ACHN renal) [µM] | GI50 (SF-268 CNS) [µM] | GI50 (SW-620 colon) [µM] | GI50 (MOLT-4 leukemia) [µM] | GI50 (CAKI-1 renal) [µM] | GI50 (T-47D breast) [µM] | TGI (T-47D breast) [µM] | GI50 (MCF7 breast) [µM] | TGI (MCF7 breast) [µM] | GI50 (NCI/ADR-RES ovarian) [µM] | TGI (NCI/ADR-RES ovarian) [µM]
Nc1ccccc1C(=O)/C=C/c1c(O)ccc2ccccc12 | > 100 | > 100 | > 100 | > 100 | > 100 | > 100 µM | > 100 |  |  |  |  |  |  |  |  |  |  |  |  | 
O=[N+]([O-])c1cccc(C2=NOC(C3CCCCC3)C2)c1 (stereo not given) | > 100 | > 100 | > 100 | > 100 | > 100 | > 100 µM |  |  |  |  |  |  |  |  |  |  |  |  |  | 
O=C(CC(=O)C1CCOC1=O)C(=O)Nc1cccc(Cl)c1 (stereo not given) | > 100 | > 100 | > 100 | > 100 | > 100 | > 100 µM | > 100 |  |  |  |  |  |  |  |  |  |  |  |  | 
COc1ccc(CC2c3c(cc(OC)c(OC)c3OC)CCN2C)cc1OC (stereo not given) | > 100 | > 100 | > 100 | > 100 | > 100 | > 100 µM | > 100 |  |  |  |  |  |  |  |  |  |  |  |  | 
CC(C)CCC[C@@H](C)C1CCC2[C@@H]3CC=C4C[C@@H](C(=O)NCCN(C)C)CC[C@]4(C)C3CC[C@@]21C (stereo not given in full) | > 100 | > 100 | > 100 | > 100 | > 100 | > 100 µM | > 100 |  |  |  |  |  |  |  |  |  |  |  |  | 
CC(C(=O)c1ccc(Cl)cc1)/C(=N/NC(=O)NN)C(=O)Nc1cccc(C(F)(F)F)c1 (stereo not given) | > 100 | > 100 | > 100 | > 100 | > 100 | > 100 µM | > 100 |  |  |  |  |  |  |  |  |  |  |  |  | 
COc1cccc(/C=N/[N-]C(=O)c2ccncc2)c1[O-].COc1cccc(/C=N/[N-]C(=O)c2ccncc2)c1[O-].[O]=[U](=[O])([OH2+])[OH2+] | > 100 | > 100 | 27.7 | 49.4 | > 100 | > 100 µM | 22.1 | 27.9 | 3.08 | 3.79 | 4.83 | 7.81 | 1.44 | 3.91 |  |  |  |  |  | 
CC(C)(C)c1ccc2c(c1)S(=O)(=O)Nc1ccc(Cl)cc1NS(=O)(=O)c1cc(C(C)(C)C)ccc1OCCOCCOCCO2 | > 100 | > 100 | > 100 | > 100 | > 100 | > 100 µM | > 100 |  |  |  |  |  |  |  |  |  |  |  |  | 
Cn1cc(-c2csc(-c3cn(CCCCN4CCCCC4)c4ccccc34)n2)c2cccnc21 | 3.37 | 3.13 | 3.03 | 3.37 | 3.25 |  |  | 1.79 | 1.71 | 1.67 | 1.71 | 1.72 |  |  | 14.3 | 40.3 |  |  |  | 
CC(C)=C1CCC(CN(C)C)C1=O (stereo not given) | > 100 | 31.7 | 31.5 | 97.3 | 20.2 | 32.9 µM |  |  |  |  |  |  |  |  |  |  |  |  |  | 
O=C(Nc1cc(Nc2ncccc2-c2ncnc3nc[nH]c23)ccc1F)c1cc(C(F)(F)F)cc(C(F)(F)F)c1 | > 10 | 6.69 | 4.27 | > 10 | > 10 | 6.67 µM |  | 3.05 | 2.67 | 1.42 | 3.17 | 1.54 | 2.32 |  | 4.24 | > 10 | 2.65 | > 10 | 2.08 | 7.32
CCC/C=C/C=C/C1CC(O)C(O)C(=O)C1CO (stereo not given) | > 100 | > 100 | > 100 | > 100 | > 100 |  | > 100 |  |  |  |  |  |  |  |  | > 100 |  | > 100 |  | > 100
NC(=O)C(=O)CC(=O)c1ccccc1NC1=CC(=O)C(=O)c2ccccc21 | > 100 | > 100 | > 100 | > 85.7 | > 100 | > 100 µM | > 100 |  |  |  |  |  |  |  |  |  |  |  |  | 
N#CC(=Nc1ccccc1N(C(=O)c1ccccc1)C(=O)c1ccccc1)c1ccccc1 | > 48.8 | > 100 | > 100 | > 100 | > 62.2 | > 100 µM | > 100 |  |  |  |  |  |  |  |  |  |  |  |  | 
COC(=O)C(=O)C(C(C)=O)C(=O)NCc1ccc(OC)c(OC)c1 (stereo not given) | > 100 | > 100 | > 100 | > 100 | > 100 | > 100 µM | > 100 |  |  |  |  |  |  |  |  |  |  |  |  | 
CCOP(=O)(OCC)C(C(=O)OC)C(=O)C(=O)Nc1ccc(Cl)cc1Cl (stereo not given) | > 100 | > 100 | > 100 | > 100 | > 100 | > 100 µM | > 100 |  |  |  |  |  |  |  |  |  |  |  |  | 
ClC(Cl)=C1C(=C(Cl)Cl)C(Cl)(Cl)C1(Cl)Cl | 25.7 | 14.1 | 8.81 | 9.22 | 3.75 | 0.715 µM and 2 µM | 8.14 |  |  |  |  |  | 0.278 |  |  | 23.6 |  | 19.2 |  | 
N#CCCN1C/C(=C/c2ccc(Br)cc2)C(=O)/C(=C/c2ccc(Br)cc2)C1 | 26.3 |  | 3.37 |  |  | > 100 µM | > 100 | 2.38 |  | 1.76 |  |  | 2.85 | 2.78 | 4.36 | 28.2 | 0.764 | 10.4 | 3.47 | > 100
CCc1ccc2c(c1)C(=O)c1c-2n(CCCN=[N+]=[N-])c(=O)c2cc([N+](=O)[O-])ccc12 | > 50 | > 50 | > 50 | > 50 | > 50 |  | > 50 | > 50 | > 50 | > 50 | > 50 | > 50 |  | > 50 | > 50 | > 50 | > 50 | > 50 | > 50 | > 50
Nc1nc(-c2ccc(Cl)c([N+](=O)[O-])c2)cs1 | > 100 | > 100 | > 100 | > 100 | > 100 | > 100 µM | > 100 |  |  |  |  |  |  |  |  |  |  |  |  | 
O=C1NCCS(=O)(=O)N[C@@H](CC2=CC=CCC2)C(=O)N2CCCC12 (stereo not given in full) | > 100 | > 100 | > 100 | > 100 | > 100 | > 100 µM |  |  |  |  |  |  |  |  |  |  |  |  |  | 
O=C(N/C(=C\c1ccc([N+](=O)[O-])cc1)c1nc2ccccc2[nH]1)c1ccccc1 | > 100 |  | > 100 | > 100 | > 100 | > 100 µM |  |  |  |  |  |  |  |  |  |  |  |  |  | 
